Reference: patent US20220365099A1, “DERIVATIZATION OF BETA-LACTAM ANTIBIOTICS FOR MASSSPEC MEASUREMENTS IN PATIENT SAMPLES” (Roche Diagnostics Operations, Inc., priority 2019, published 2022)

Assay: Stability in water at room temperature, LC-MS/MS peak areas over 16 h
Assay type: physicochemical
Details: 5 μg/ml in water, timepoints 0, 2, 4, 6, 8 and 16 h
Experimental: The stability of native Piperacillin as well as its hydrolyzed forms was investigated (compounds 5, 9a and 9b, respectively. From the hydrolyzation pathway of Piperacillin (see schematic drawing in FIG. 1) it is obvious that this compound hydrolyzed both on the piperazin ring and the lactam moiety, only one of both compounds is monitored to account for the loss of native Piperacillin). To this end, these compounds were freshly weighed and dissolved in water at a concentration of 1 mg/mL by rolling for 15 minutes at room temperature. Subsequently, these compounds were diluted to 5 μg/ml and measured with a suitable LC-MS/MS method at timepoints 0, 2, 4, 6, 8 and 16 h. […] The peaks were integrated using MultiQuant software and the areas of these peaks depicted in the graphs in FIGS. 2A and 2B.
The stability of double butylamide variants of Piperacillin (compound 7, see FIG. 4) was investigated at 2 MRMs using the identical protocol as in Examples 1.

obtained peak-areas over time: decreasing
SMILES: CCN1CCN(C(=O)N[C@@H](C(=O)N[C@@H]2C(=O)N3[C@@H]2SC(C)(C)[C@@H]3C(=O)O)c2ccccc2)C(=O)C1=O [Piperacillin]
